Laboratory results taken from patent US10894087B2, “Multi-arm polymeric prodrug conjugates of cabazitaxel-based compounds” (Nektar Therapeutics, priority 2010, dated 2021).
Where two headings read alike, the source gives them in different places.

Experiments:
[1] = test system: H460 non-small cell lung cancer (NSCLC) implants; settings: iv; for % TGD / Median TTE (Median Time to Endpoint) / TGD (tumor growth delay compared to vehicle) / CR (Number of Complete Regressions) / Deaths / PR (Number of Partial Regressions) / TFS (Number of Tumor Free Survivors) / MTV (Median Tumor Volume): qwk x 3; for CR (Number of Complete Regressions) / Deaths / PR (Number of Partial Regressions) / TFS (Number of Tumor Free Survivors): N=10; for BW Nadir (d), day of nadir: mouse, in vivo
Experimental: Purpose. Studies were conducted to assess the growth inhibitory effects of PEGylated-conjugates of cabazitaxel on H460 non-small cell lung cancer (NSCLC) implants in athymic nu/nu mice.
Experimental plan. These studies were conducted using routine methods and materials that are familiar to those skilled in the art. Briefly, 8 to 12 week old female nu/nu mice were injected subcutaneously in the flank with 1×10^7 H460 tumor cells in 0.2 mL sterile buffer. […] Animals received three intravenous doses of test article at one week intervals beginning on day 1. Cabazitaxel solutions were prepared in D5W containing 5% Tween 80:10% ethanol. PEG-cabazitaxel conjugates were prepared in D5W. The administration volume for all test articles was 10 mL/kg. The test doses were selected to represent the MTD and ½ the MTD for each test compound. The tables list the actual mg/kg for each test article and the corresponding cabazitaxel equivalent calculated based on the weight-percent cabazitaxel content for each PEGylated conjugate.
Animals were weighed on days 1-5, 7, 9, 11, 13 then biweekly until the end of the study. Tumor sizes were measured using calipers biweekly throughout the study and tumor volumes were calculated using the formula for an ellipsoid sphere: L×W^2/2=mm^3, where L and W are the major axis dimensions of the tumor in mm. Additional parameters that were monitored were the number of non-specific deaths, number of partial and complete tumor regressions, number of tumor-free survivors, and the time required for individual animals' tumors to reach 2000 mm^3. The median time for a tumor to reach 2000 mm^3 in the treatment groups (T) and control group (C) was used to calculate of the overall delay in the growth of the median tumor (TGD). Animals were monitored individually until reaching the experimental endpoint: tumor size of 2000 mm^3 or 45 days, whichever came first. […] When the study endpoint was reached, the animals were euthanized.

[2] = Maximum tolerated dose (MTD) study of PEGylated conjugates of cabazitaxel in athymic mice; assay type: in vivo, female athymic nu/nu mice; settings: qw x 3, iv; for Treatment-Related Deaths: N=5
Experimental: Purpose. This study was performed to determine appropriate doses of each compound for tumor xenograft studies. In those studies, it is desirable to administer the maximum dose of test compound that will not cause excessive loss of body weight. In general, loss of ˜15% of the initial body weight of the animal is typically the maximum desired.
Experimental procedure. MTD for 4-arm-conjugated to cabazitaxel were determined in female athymic nu/nu mice using standard methods. Briefly, 8-12 week old mice were administered test compounds or cabazitaxel intravenously at one week intervals for a total of three doses per mouse (qw×3, iv) as shown in Tables 1 and 2. For all PEG-conjugated test compounds, the doses of both the conjugate and released cabazitaxel, calculated from the cabazitaxel content of the respective conjugate, are shown. […] PEG-cabazitaxel conjugates were prepared in D5W. […] Mice were observed daily for clinical signs and body weights were recorded on days 1-5 and then biweekly until the end of study. All procedures were conducted in compliance with IACUC requirements. […] For any group with two measurements of mean body weight loss of greater than 20%, dosing was stopped and recovery was allowed. Within a group with greater than 20% mean weight loss, individual animals greater than 30% body weight loss were euthanized. Compound dosing was terminated for any group in which mean weight loss exceeded 20% or >10% of animals died. Moribund animals were euthanized and all animals were euthanized at end of study (day 30).
Results. The results for the study MTD “20K Conjugates” are summarized in Table 3 and FIG. 1 while the results for the MTD “30K and 40K Conjugates” study are summarized Table 4 and FIG. 2. […] It should be noted that this is not meant to be a definitive MTD, but is simply a guide to select an appropriate dose for conducting tumor xenograft studies using this administration route and schedule. Note too, that these MTD are given as cabazitaxel equivalents. The actual dose of each conjugate must be corrected for the wt % of cabazitaxel in that specific conjugate.

[3] = mainly by the CYP3A4/5 isozyme; cited from earlier work
[4] = 20K conjugate xenograft study, 12.5 mg/kg cabazitaxel eq.
[5] = 20K conjugate xenograft study, 25 mg/kg cabazitaxel eq.
[6] = MTD study 20K conjugates, 7.5 mg/kg cabazitaxel eq.
[7] = MTD study 20K conjugates, 15 mg/kg cabazitaxel eq.
[8] = MTD study 20K conjugates, 30 mg/kg cabazitaxel eq.
[9] = 20K conjugate xenograft study, 15 mg/kg cabazitaxel eq.
[10] = 20K conjugate xenograft study, 30 mg/kg cabazitaxel eq.
[11] = 30K and 40K conjugate xenograft study, 15 mg/kg cabazitaxel eq.
[12] = 30K and 40K conjugate xenograft study, 30 mg/kg cabazitaxel eq.
[13] = MTD study 30K and 40K conjugates, 30 mg/kg cabazitaxel eq.

4-ARM-PEG20K-Acetate-Linked Cabazitaxel [4-arm-PEG20K-CM-Cabazitaxel]
% TGD [1, 4]: 99% | Median TTE (Median Time to Endpoint) [1, 4]: 36.8 days | TGD (tumor growth delay compared to vehicle) [1, 4]: 18.3 days | CR (Number of Complete Regressions) [1, 4]: 0 | Deaths [1, 4]: 0 | PR (Number of Partial Regressions) [1, 4]: 0 | TFS (Number of Tumor Free Survivors) [1, 4]: 0 | % TGD [1, 5]: 154% | MTV (Median Tumor Volume) [1, 5]: 358 mm^3 | TGD (tumor growth delay compared to vehicle) [1, 5]: 28.5 days | CR (Number of Complete Regressions) [1, 5]: 0 | Deaths [1, 5]: 0 | PR (Number of Partial Regressions) [1, 5]: 10 | TFS (Number of Tumor Free Survivors) [1, 5]: 0 | BW Nadir [2, 6]: −3.4% | BW Nadir (day) [2, 6]: 3 days | Treatment-Related Deaths [2, 6]: 0 | BW Nadir [2, 7]: −2.0% | BW Nadir (day) [2, 7]: 3 days | Treatment-Related Deaths [2, 7]: 0 | BW Nadir [2, 8]: −10.2% | BW Nadir (day) [2, 8]: 23 days | Treatment-Related Deaths [2, 8]: 0 | Estimated MTD, cabazitaxel equivalents ([2]; athymic nu/nu mice, guide value, not a definitive MTD): 25 mg/kg

CO[C@H]1C(=O)[C@]2(C)[C@@H](OC)C[C@H]3OC[C@@]3(OC(C)=O)[C@H]2[C@H](OC(=O)c2ccccc2)[C@]2(O)C[C@H](OC(=O)[C@H](O)[C@@H](NC(=O)OC(C)(C)C)c3ccccc3)C(C)=C1C2(C)C [Cabazitaxel, (2α,5β,7β,10β,13α-4-acetoxy-13-({(2R,3S)-3-[(tertbutoxycarbonyl)amino]-2-hydroxy-3-phenylpropanoyl}oxy)-1-hydroxy-7,10-dimethoxy-9-oxo-5,20-epoxytax-11-en-2-yl benzoate]
% TGD [1, 9]: 52% | MTV (Median Tumor Volume) [1, 9]: 1764 mm^3 | Median TTE (Median Time to Endpoint) [1, 9]: 28.1 days | TGD (tumor growth delay compared to vehicle) [1, 9]: 9.6 days | CR (Number of Complete Regressions) [1, 9]: 0 | Deaths [1, 9]: 0 | PR (Number of Partial Regressions) [1, 9]: 0 | TFS (Number of Tumor Free Survivors) [1, 9]: 0 | % TGD [1, 10]: 154% | MTV (Median Tumor Volume) [1, 10]: 918 mm^3 | TGD (tumor growth delay compared to vehicle) [1, 10]: 28.5 days | CR (Number of Complete Regressions) [1, 10]: 0 | Deaths [1, 10]: 0 | PR (Number of Partial Regressions) [1, 10]: 3 | TFS (Number of Tumor Free Survivors) [1, 10]: 0 | % TGD [1, 11]: 87% | Median TTE (Median Time to Endpoint) [1, 11]: 27.9 days | TGD (tumor growth delay compared to vehicle) [1, 11]: 13 days | CR (Number of Complete Regressions) [1, 11]: 0 | Deaths [1, 11]: 0 | PR (Number of Partial Regressions) [1, 11]: 0 | TFS (Number of Tumor Free Survivors) [1, 11]: 0 | % TGD [1, 12]: 208% | MTV (Median Tumor Volume) [1, 12]: 994 mm^3 | TGD (tumor growth delay compared to vehicle) [1, 12]: 31.1 days | CR (Number of Complete Regressions) [1, 12]: 0 | Deaths [1, 12]: 0 | PR (Number of Partial Regressions) [1, 12]: 5 | TFS (Number of Tumor Free Survivors) [1, 12]: 0 | BW Nadir (d), day of nadir ([1]; 15 mg/kg): (22) d | BW Nadir (d), day of nadir ([1]; 30 mg/kg): (22) d | BW Nadir [2, 8]: −15.4% | BW Nadir (day) [2, 8]: 20 days | Treatment-Related Deaths [2, 8]: 0 | BW Nadir [2, 13]: −6.8% | BW Nadir (day) [2, 13]: 21 days | Treatment-Related Deaths [2, 13]: 0 | Extent metabolized in the liver [3]: > 95%
